Bridge positions count the residues as written; N and C are the ends. Square brackets hold non-standard residues; d marks the D form. S5 = C=CCCC[C@](C)(N)C(=O)O; Nle = CCCC[C@H](N)C(=O)O
Tests used:
Type in all cases: cell-based, human
[1] = test system: CHOP, BIP and GRP94 genes; assay: Tunicamycin-induced ER stress in THP-1 cells, expression of the CHOP, BIP and GRP94 genes by RT-qPCR; settings: THP-1, tunicamycin 0.1 μg/ml
Protocol: To assess the specificity of recognition of stapled peptides IRAK2, we induced ER stress in human monocytic cell line THP-1 by treatment with tunicamycin (0.1 μg/ml) for 8 h and 24 h.
THP-1 cells were cultured (300 000 cells/well) in RPMI 1640 supplemented with 10% fetal calf serum, 1% penicillin/streptomycin and L-glutamine. The cells were treated with 0.1 μg/ml tunicamycin for 30 min, 8 H or 24 H. The peptide was solubilized in 4% DMSO and used at concentrations ranging from 1 to 20 μM. Total cell RNAs were extracted with the miRNeasy kit (Qiagen), the expression levels of the genes were measured by RT-qPCR with Taqman assays (Lifetechnology) technology.
We have shown that IRAK2 is the main kinase expressed at 8 h, compared to IRAK1 (FIG. 3A). Measurement of the expression of the CHOP, BIP and GRP94 genes validated the activation of the ER stress at 8H as expected according to literature (FIG. 3B). In this study the peptides IRAK2 Li, IRAKM Li, IRAK2 S1, IRAK2 S2 (Li for linear peptide and S1 and S2 for stapled peptide) were tested. […] This inhibition was specific since, stapled peptide concentration of 20 μM, control stapled peptide (Mock S) has no effect (FIG. 3D).

TNFα = assay: LPS-stimulated THP-1 monocytes, TNFα in culture supernatant by ELISA
Protocol: (§1) THP1 cells were cultured (300 000 cells/well) in RPMI 1640 supplemented with 10% fetal calf serum, 1% penicillin/streptomycin and L-glutamine. The cells were treated with 0.1 μg/ml LPS for 6 h for TNFα, and 24 h for IL-6 and IL-1β. The peptides were solubilized in 4% DMSO and used at 5 and 20 μM. The peptides were added at the same time as the LPS. The determination of the cytokines in the culture supernatants was carried out with the specific ELISA kits (eBioscience).
(§2) For all conditions tested, THP-1 monocytes were cultured (300 000 cells/well) in RPMI with 10% fetal calf serum; 1% penicillin/streptomycin and L-glutamine. THP-1 were treated with 0.1 μg/mL of LPS for 24 hours, stapled-peptides IRAK2-S1 et IRAKM-S1 were used at 1 to 20 μM and added at the same time for condition A, 6 hours before LPS for condition B and 6 hours after LPS for condition C. The quantification of cytokine in the culture supernatants was carried out with specific IL-6 and TNFα ELISA (eBioscience).
(§3) For all conditions tested, THP-1 monocytes were cultured (300 000 cells/well) in RPMI with 10% fetal calf serum; 1% penicillin/streptomycin and L-glutamine. THP-1 were treated with 0.1 μg/mL of LPS for 24 hours, stapled-peptides IRAK2-S1, IRAK2-JMV6649, IRAKM-S1 and IRAKM-JMV6650 were used at 10 to 20 μM and added at the same time for «Simultaneous» condition, 6 hours before LPS for «preventive» condition and 6 hours after LPS for «curative» condition. Using ELISA (eBioscience), IL-6 and TNFα quantification was carried out in monocyte culture supernatants.

IL-6 = assay: LPS-stimulated THP-1 monocytes, IL-6 in culture supernatant by ELISA; settings: for effect on the expression level of IL-6: curative condition (peptide 6 hours after LPS), 1 to 20 μM; for IL-6 expression compared with the S1 peptide: curative condition; for efficacy on IL-6 compared with the IRAK2 peptide (IRAK2-S1): 10 to 20 μM
Protocol: as §1, §2, §3

IL-1β [2] = assay: PMA-induced macrophage differentiation of THP-1 monocytes, IL-1β RNA (RT-qPCR) and secretion (ELISA); settings: THP-1, PMA 0.1 μg/ml 48 h, peptide 20 μM
Protocol: (§4) We stimulated the THP-1 monocytes with 0.1 μg/ml PMA for 48 h to induce differentiation into macrophages, and treated with 20 μM stapled peptide (IRAK2-S1 or Mock-S).
(§5) THP1 cells were cultured (300,000 cells/well) in RPMI 1640 supplemented with 10% fetal calf serum, 1% penicillin/streptomycin and L-glutamine. The cells were treated with 0.1 μg/ml of PMA for 48 h. The peptides were solubilized in 4% DMSO and used at 20 μM. The peptides are added together with the PMA. Total RNA of the cells were extracted by the miRNeasy kit (Qiagen), the level of expression of IL-1β was measured by RT-qPCR technology by Taqman assays (lifetechnology)
(§6) After extraction of the RNAs, we quantified by RT-qPCR the level of expression of the RNA of IL-1β (FIG. 4A). Using ELISA method, the cytokine secretion was measured in the supernatant of the treated THP-1 (FIG. 4B). The IRAK2-S1 peptide was able to block the expression and production of IL-1β at 20 μM. At this concentration, the peptide appears to have no effect on viability and morphology of the cells.

THP-1 cells = assay: Viability and morphology of PMA-treated THP-1 cells with peptide; settings: THP-1, peptide 20 μM
Protocol: as §4, §5, §6

IL-1β [3] = assay: LPS-stimulated THP-1 monocytes, IL-1β in culture supernatant by ELISA; settings: THP1, LPS 0.1 μg/ml 24 h, peptide 5 and 20 μM added at the same time as LPS
Protocol: as §1

[4] = simultaneous condition, peptide 20 μM
[5] = curative condition (peptide 6 hours after LPS), 10 μM
[6] = curative condition (peptide 6 hours after LPS), 20 μM
[7] = preventive condition (peptide 6 hours before LPS), 20 μM
[8] = simultaneous condition, LPS 0.1 μg/mL 24 h, peptide 10 and 20 μM
[9] = preventive condition (peptide 6 hours before LPS), 10 μM

## Ac-ITF-S5-NLL-S5-YYGP-NH2 (Ac-ITF[S5]NLL[S5]YYGP-NH2; staple 4-8; SMILES CC[C@H](C)[C@H](NC(C)=O)C(=O)N[C@H](C(=O)N[C@@H](Cc1ccccc1)C(=O)N[C@@]1(C)CCCC=CCCC[C@@](C)(C(=O)N[C@@H](Cc2ccc(O)cc2)C(=O)N[C@@H](Cc2ccc(O)cc2)C(=O)NCC(=O)N2CCC[C@H]2C(N)=O)NC(=O)[C@H](CC(C)C)NC(=O)[C@H](CC(C)C)NC(=O)[C@H](CC(N)=O)NC1=O)[C@@H](C)O) [Mock-S, reference compound]
[1]; peptide 20 μM
  expression of ER stress genes (specificity control): no effect
TNFα; [4]
  inhibition of TNFα expression: 15 to 20%
IL-6; [4]
  inhibition of IL-6 expression: 15 to 20%

## Ac-KSG-S5-REL-S5-WSWAQK-NH2 (Ac-KSG[S5]REL[S5]WSWAQK-NH2; staple 4-8; SMILES CC(=O)N[C@@H](CCCCN)C(=O)N[C@@H](CO)C(=O)NCC(=O)N[C@@]1(C)CCCC=CCCC[C@@](C)(C(=O)N[C@@H](Cc2c[nH]c3ccccc23)C(=O)N[C@@H](CO)C(=O)N[C@@H](Cc2c[nH]c3ccccc23)C(=O)N[C@@H](C)C(=O)N[C@@H](CCC(N)=O)C(=O)N[C@@H](CCCCN)C(N)=O)NC(=O)[C@H](CC(C)C)NC(=O)[C@H](CCC(=O)O)NC(=O)[C@H](CCCNC(=N)N)NC1=O) [IRAKM-S1]
TNFα; [5]
  inhibition of TNFα secretion: No inhibition
TNFα; [6]
  inhibition of TNFα secretion: 15 to 20%
TNFα; [7]
  inhibition of TNFα secretion: 95%
TNFα; [8]
  inhibition of TNFα secretion: significantly inhibit
TNFα; [4]
  inhibition of TNFα expression: up to 95%
IL-6
  effect on the expression level of IL-6: no effect
IL-6; [7]
  inhibition of IL-6 secretion: 90%
IL-6; [8]
  inhibition of IL-6 secretion: significantly inhibit
IL-6; [4]
  inhibition of IL-6 expression: ≤ 90%

## Ac-KSG-S5-REL-S5-WSWAQKNKTI-NH2 (Ac-KSG[S5]REL[S5]WSWAQKNKTI-NH2; staple 4-8; SMILES CC[C@H](C)[C@H](NC(=O)[C@@H](NC(=O)[C@H](CCCCN)NC(=O)[C@H](CC(N)=O)NC(=O)[C@H](CCCCN)NC(=O)[C@H](CCC(N)=O)NC(=O)[C@H](C)NC(=O)[C@H](Cc1c[nH]c2ccccc12)NC(=O)[C@H](CO)NC(=O)[C@H](Cc1c[nH]c2ccccc12)NC(=O)[C@]1(C)CCCC=CCCC[C@](C)(NC(=O)CNC(=O)[C@H](CO)NC(=O)[C@H](CCCCN)NC(C)=O)C(=O)N[C@@H](CCCNC(=N)N)C(=O)N[C@@H](CCC(=O)O)C(=O)N[C@@H](CC(C)C)C(=O)N1)[C@@H](C)O)C(N)=O) [IRAKM-JMV6649]
TNFα; curative condition, 20 μM
  increase of inhibition of TNFα expression compared with IRAKM-S1: not significant
TNFα; preventive condition, 10 μM
  greater inhibition of TNFα expression compared with IRAKM-S1: 20%
TNFα; simultaneous condition, 20 μM
  additive inhibitory effect on TNFα expression compared with IRAKM-S1: no additive inhibitory effect
IL-6; 20 μM
  IL-6 expression compared with the S1 peptide: not significant
IL-6; preventive condition, 10 μM
  additional inhibition of IL-6 expression compared with IRAKM-S1: 60%
IL-6; preventive condition, 20 μM
  additional inhibition of IL-6 expression compared with IRAKM-S1: 80%
IL-6; simultaneous condition, 20 μM
  decrease of IL-6 secretion compared with IRAKM-S1: more than 70%

## Ac-S5-REL-S5-WWWGBRQA-NH2 (Ac-[S5]REL[S5]WWWG[Nle]RQA-NH2; staple 1-5; SMILES CCCC[C@H](NC(=O)CNC(=O)[C@H](Cc1c[nH]c2ccccc12)NC(=O)[C@H](Cc1c[nH]c2ccccc12)NC(=O)[C@H](Cc1c[nH]c2ccccc12)NC(=O)[C@]1(C)CCCC=CCCC[C@](C)(NC(C)=O)C(=O)N[C@@H](CCCNC(=N)N)C(=O)N[C@@H](CCC(=O)O)C(=O)N[C@@H](CC(C)C)C(=O)N1)C(=O)N[C@@H](CCCNC(=N)N)C(=O)N[C@@H](CCC(N)=O)C(=O)N[C@@H](C)C(N)=O) [IRAK2-S1]
[1]; simultaneous treatment, peptide 1 to 20 μM, RT-qPCR
  expression of CHOP, GRP94 and BIP (ER stress): blocked in a dose-dependent manner
IL-1β [2]; ELISA
  production of IL-1β in supernatant: able to block
IL-1β [2]; RT-qPCR
  expression of IL-1β RNA: able to block
THP-1 cells
  effect on viability and morphology of the cells: no effect
TNFα; THP1, LPS 0.1 μg/ml 6 h, peptide 5 and 20 μM added at the same time as LPS
  TNFα secreted after LPS stimulation: reduced the expression of the 3 cytokines in a dose-dependent manner
TNFα; [5]
  inhibition of TNFα secretion: ≤ 30%
TNFα; [6]
  inhibition of TNFα secretion: ≤ 70%
TNFα; [9]
  inhibition of TNFα expression: No inhibition
TNFα; [7]
  inhibition of TNFα secretion: 15 to 20%
TNFα; [8]
  inhibition of TNFα secretion: significantly inhibit
IL-6; THP1, LPS 0.1 μg/ml 24 h, peptide 5 and 20 μM added at the same time as LPS
  IL-6 secreted after LPS stimulation: reduced the expression of the 3 cytokines in a dose-dependent manner
IL-6
  effect on the expression level of IL-6: no effect
IL-6; [9]
  inhibition of IL-6 expression: No inhibition
IL-6; [7]
  inhibition of IL-6 secretion: 15 to 20%
IL-6; [8]
  inhibition of IL-6 secretion: significantly inhibit
IL-1β [3]
  IL-1β secreted after LPS stimulation: reduced the expression of the 3 cytokines in a dose-dependent manner

## Ac-VSI-S5-REL-S5-WWWGBRQATV-NH2 (Ac-VSI[S5]REL[S5]WWWG[Nle]RQATV-NH2; staple 4-8; SMILES CCCC[C@H](NC(=O)CNC(=O)[C@H](Cc1c[nH]c2ccccc12)NC(=O)[C@H](Cc1c[nH]c2ccccc12)NC(=O)[C@H](Cc1c[nH]c2ccccc12)NC(=O)[C@]1(C)CCCC=CCCC[C@](C)(NC(=O)[C@@H](NC(=O)[C@H](CO)NC(=O)[C@@H](NC(C)=O)C(C)C)[C@@H](C)CC)C(=O)N[C@@H](CCCNC(=N)N)C(=O)N[C@@H](CCC(=O)O)C(=O)N[C@@H](CC(C)C)C(=O)N1)C(=O)N[C@@H](CCCNC(=N)N)C(=O)N[C@@H](CCC(N)=O)C(=O)N[C@@H](C)C(=O)N[C@H](C(=O)N[C@H](C(N)=O)C(C)C)[C@@H](C)O) [IRAK2-JMV6650]
TNFα; curative condition, 10 to 20 μM
  additional inhibition of TNFα production compared with the S1 peptide: not significant
TNFα; preventive condition, 10 to 20 μM, data not shown
  efficacy on TNFα compared with the IRAK2 peptide (IRAK2-S1): No more efficacy
TNFα; simultaneous condition, 10 to 20 μM
  efficacy on TNFα compared with the IRAK2 peptide (IRAK2-S1): No more efficacy
IL-6; 20 μM
  IL-6 expression compared with the S1 peptide: acts as IRAK2-S1
IL-6; preventive condition, data not shown
  efficacy on IL-6 compared with the IRAK2 peptide (IRAK2-S1): No more efficacy
IL-6; simultaneous condition
  efficacy on IL-6 compared with the IRAK2 peptide (IRAK2-S1): No more efficacy

Source: patent US11339191B2, “Stapled peptides and uses thereof” (Universite de Montpellier, priority 2016, dated 2022)
